The subject of one series is SGC-7901. The series is described as follows: Antiproliferative activity against human SGC7901 cells after 72 hrs by MTT assay. The class given is functional, cell-based. The settings on record: SGC-7901, 72 h.
For a further series, the system named is A549. The series is described as follows: Antiproliferative activity against human A549 cells after 72 hrs by MTT assay. The settings on record: A549, 72 h. The format is functional, cell-based.
The next series deals with HT-1080. The series is described as follows: Antiproliferative activity against human HT1080 cells after 72 hrs by MTT assay. The class given is functional, cell-based. The settings on record: HT-1080, 72 h. In general terms: Tetrazolium dyes change colour on reduction, which living cells bring about.
A short description of series [1]: (§1) Inhibition of porcine tubulin polymerization preincubated for 1 min and measured for 82 mins by fluorescence assay. On the set-up: species or system Sus scrofa.
In another series the test system is L929. The series is described as follows: Antiproliferative activity against mouse L929 cells after 72 hrs by MTT assay. The format is cell-based. The settings on record: L929, 72 h.
Series [2] can be described thus: Selectivity index, ratio of IC50 for mouse L929 cells to IC50 for human SGC7901 cells. The class given is toxicity. The settings on record: L929 cells versus SGC7901 cells, read-out: Ratio IC50.
Series [3] is described as follows: Selectivity index, ratio of IC50 for mouse L929 cells to IC50 for human A549 cells. The format is toxicity. The settings on record: L929 cells versus A549 cells, read-out: Ratio IC50.
The nature of series [4]: Selectivity index, ratio of IC50 for mouse L929 cells to IC50 for human HT1080 cells. The format is toxicity. The settings on record: L929 cells versus HT1080 cells, read-out: Ratio IC50.
The species named for a further series is Sus scrofa. Described as §1.

Bounds are passed on as bounds.

As usually defined, the IC50 is the concentration that inhibits the measured activity by half. Read a low IC50 as greater potency. In the case of `COc1cc(C(=O)c2nnc(-c3ccc(C)cc3)s2)cc(OC)c1OC`, the half-maximal inhibitory concentration (IC50) is greater than 100 µM in the series on SGC-7901, 35.3 µM in the series on A549, greater than 100 µM with HT-1080 and greater than 100 µM in series [1].
Take `COc1ccc(/C=C\c2cc(OC)c(OC)c(OC)c2)cc1O` [COMBRETASTATIN A4]: the results for the IC50 with SGC-7901, in the series with A549 and with L929 were 0.012 µM, 0.016 µM and 0.82 µM, respectively.
In the case of `COc1cc(C(=O)c2csc(-c3ccccc3)n2)cc(OC)c1OC`, the IC50 with HT-1080 was 0.15 µM.
Consider `COc1cc2c(c(OC)c1OC)-c1ccc(OC)c(=O)cc1[C@@H](NC(C)=O)CC2` [COLCHICINE], for which the IC50 was found to be 0.134 µM in the series on SGC-7901, 0.137 µM in the series with A549, 0.042 µM in the series with HT-1080 and 1.01 µM in the series on L929. In addition, the selectivity ratio in series [2] worked out at 7.5; in series [3], 7.4; in [4], 24.
On to `COc1cc(C(=O)c2nc(-c3ccc(C)cc3)n[nH]2)cc(OC)c1OC`, for which the half-inhibitory concentration (IC50) in the series with SGC-7901 amounted to 0.38 µM; in the series with A549, 1.07 µM; in the series with HT-1080 it was 0.65 µM; in the series on L929, 42.6 µM; in series [1], 7.71 µM. Moreover, the results for the selectivity ratio in series [2], in [3] and in [4] were 112, 39.8 and 65.5, respectively. Besides, the inhibition result in the series listed under Sus scrofa was “Dose-dependent effect”.
`COc1cc(C(=O)c2nnc(-c3ccc(C)cc3)o2)cc(OC)c1OC`: the IC50 with SGC-7901 is 6.77 µM; with A549, 15.3 µM; in the series with HT-1080, greater than 100 µM.

(Values after ChEMBL document CHEMBL4265947, “Conformation impacts on the bioactivities of SMART analogues” (Eur J Med Chem, 2018).)
